Here are results for 22 compounds from patent US20260250250A1, “3-(SULPHONYL OR SULFONIMIDOYL)PROP-2-EN-1-YL]-2-OXO-1,2-DIHYDROPYRIDINE-3-CARBOXAMIDE DERIVATIVES” (Flinder Therapeutics B.V., priority 2022, published 2026).

As a reminder, the pIC50 is −log10 of the IC50, conventionally taken in molar units. Read a high pIC50 as a small IC50.

pIC50: −log10 of the molar value.

The first experiment deals with bladder carcinoma RT4 cell line. The experiment is described as follows: TNF-α-induced cytotoxicity assay (CellTiter-Glo viability). The settings on record: Homo sapiens, RT-4, 72 h. In kind it is cell-based. The procedure: A viability assay, using bladder carcinoma RT4 cell line, was used for identifying the potential inhibitory effect of tested compounds on HOIP activity. The viability was determined by CellTiter-Glo Luminescent Cell Viability Assay (G7571, Promega) which measures the ability of generating a luminescent signal proportional to the amount of ATP present in living cells. The assay consists of a few steps: • a) the cells were routinely sub cultivated twice a week with standard complete growth medium composition; • b) cells were preparated for the assay by creating a cell suspension at the density of 0.05 mln cells/mL and dispensed into plates (ViewPlate-384, PerkinElmer) resulting in 1000 cells/well; • c) cells were stimulated with 1.25 ng/mL TNFα and with compounds and incubated for 72 h at 37° C. in the atmosphere with 5% CO2; and • d) for detection cytotoxicity was measured with CellTiter-Glo® Luminescent Cell Viability Assay based on the method described by the manufacturer.
(Cellular ATP, detected with luciferase, serves as a proxy for viable cell number.)
In the case of `COc1ccc(S(=N)(=O)/C=C/CNC(=O)c2cc3c([nH]c2=O)CCN(C(=O)OC2CCCCC2)C3)cc1F` (centres unmarked) [Example 184, cyclohexyl 3-{[(2E)-3-[(3-fluoro-4-methoxyphenyl)(imino)oxo-λ^6-sulfanyl]prop-2-en-1-yl]carbamoyl}-2-oxo-1,2,5,6,7,8-hexahydro-1,6-naphthyridine-6-carboxylate], the pIC50 was not below 6.00. Turning to `N=S(=O)(/C=C/CNC(=O)c1cc2c([nH]c1=O)CCCC2)c1ccc(N2CCCC2)cc1` (centres unmarked) [Example 162, N-[(2E)-3-[imino(oxo)[4-(Pyrrolidin-1-yl)phenyl]-λ^6-sulfanyl]prop-2-en-1-yl]-2-oxo-1,2,5,6,7,8-hexahydroquinoline-3-carboxamide], the pIC50 was not below 6.00. Turning to `CN1CCCc2cc(S(=N)(=O)/C=C/CNC(=O)c3cc4c([nH]c3=O)CCCC4)ccc21` (centres unmarked) [Example 177, N-[(2E)-3-[imino(1-methyl-1,2,3,4-tetrahydroquinolin-6-yl)oxo-A*-sulfanyl]prop-2-en-1-yl]-2-oxo-1,2,5,6,7,8-hexahydroquinoline-3-carboxamide], the pIC50 was not below 6.00.

For `COc1ccc(S(=N)(=O)/C=C/CNC(=O)c2cc3c([nH]c2=O)CCC(F)C3)cc1F` (centres unmarked) [Example 172, 6-fluoro-N-[(2E)-3-[(3-fluoro-4-methoxyphenyl)(imino)oxo-λ^6-sulfanyl]prop-2-en-1-yl]-2-oxo-1,2,5,6,7,8-hexahydroquinoline-3-carboxamide], the pIC50 was not below 5.00.

Turning to `N=S(=O)(/C=C/CNC(=O)c1cc2c([nH]c1=O)CCCC2)c1ccc(N2CCCCC2)cc1` (centres unmarked) [Example 161, N-[(2E)-3-[imino(oxo)[4-(piperidin-1-yl)phenyl]-λ^6-sulfanyl]prop-2-en-1-yl]-2-oxo-1,2,5,6,7,8-hexahydroquinoline-3-carboxamide], the negative logarithm of the IC50 (pIC50) was not below 6.00.

In a further experiment the target is T1, human E3 ubiquitin-protein ligase RNF31 (HOIP) (Homo sapiens, UniProt Q96EP0).
T1 sequence (Q96EP0 695-1072 limits assumed): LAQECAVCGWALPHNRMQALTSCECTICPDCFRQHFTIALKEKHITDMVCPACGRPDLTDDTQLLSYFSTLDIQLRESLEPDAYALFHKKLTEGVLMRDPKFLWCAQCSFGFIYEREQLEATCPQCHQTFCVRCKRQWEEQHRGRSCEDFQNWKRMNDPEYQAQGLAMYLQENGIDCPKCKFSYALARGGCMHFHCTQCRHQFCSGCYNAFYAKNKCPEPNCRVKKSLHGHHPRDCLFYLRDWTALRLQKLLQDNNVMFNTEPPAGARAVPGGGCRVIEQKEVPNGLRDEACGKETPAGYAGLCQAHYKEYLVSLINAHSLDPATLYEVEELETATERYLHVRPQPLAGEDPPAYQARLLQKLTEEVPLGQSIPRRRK
The experiment is described as follows: Cell-free HTRF-based HOIP inhibition assay. The format is biochemical.
Conditions: not given
The method, then: This assay was performed in the following steps: • a) synthesis of recombinant fragment of human E3 ubiquitin-protein ligase RNF31 (HOIP), expressed with purity >90% in E. coli system (the protein was prepared as 1 mg/mL stock in a standard formulation); • b) incubation of the compounds in a typical concentration range: 100-0.005 μM, at a final DMSO conc. 1% with a mixture of HOIP and ubiquitin activating enzyme E1 at 25° C., for 1 h at 25° C.; • c) followed by addition of a ubiquitination solution including E2 and substrates (the reaction proceeds for 2.5 h at 25° C.); and • d) HTRF detection was performed using a PHERAstar FSX (BMG Labtech) plate reader (excitation at 337 nm, dual emissions at 665 and 620 nm).
In general terms: Time-resolved FRET reads energy transfer from a long-lived donor to a nearby acceptor.
Compound `O=C(NC/C=C/S(=O)(=O)c1ccccc1)c1cc2c([nH]c1=O)CCN(C(=O)C1CCN(c3ccccc3)C1)C2` (centres unmarked) [Example 118, N-[(2E)-3-(benzenesulfonyl)prop-2-en-1-yl]-2-oxo-6-(1-phenylpyrrolidine-3-carbonyl)-1,2,5,6,7,8-hexahydro-1,6-naphthyridine-3-carboxamide] showed a pIC50 not below 6.00. Regarding `COc1ccc(S(=N)(=O)/C=C/CNC(=O)c2cc3c([nH]c2=O)CCN(C(=O)OC2CCCCC2)C3)cc1F` (centres unmarked) [Example 184, cyclohexyl 3-{[(2E)-3-[(3-fluoro-4-methoxyphenyl)(imino)oxo-λ^6-sulfanyl]prop-2-en-1-yl]carbamoyl}-2-oxo-1,2,5,6,7,8-hexahydro-1,6-naphthyridine-6-carboxylate], the pIC50 was not below 7.00. Compound `N=S(=O)(/C=C/CNC(=O)c1cc2c([nH]c1=O)CCCC2)c1ccc(N2CCCC2)cc1` (centres unmarked) [Example 162, N-[(2E)-3-[imino(oxo)[4-(Pyrrolidin-1-yl)phenyl]-λ^6-sulfanyl]prop-2-en-1-yl]-2-oxo-1,2,5,6,7,8-hexahydroquinoline-3-carboxamide] gave a pIC50 not below 7.00. `CN1CCCc2cc(S(=N)(=O)/C=C/CNC(=O)c3cc4c([nH]c3=O)CCCC4)ccc21` (centres unmarked) [Example 177, N-[(2E)-3-[imino(1-methyl-1,2,3,4-tetrahydroquinolin-6-yl)oxo-A*-sulfanyl]prop-2-en-1-yl]-2-oxo-1,2,5,6,7,8-hexahydroquinoline-3-carboxamide] gave a pIC50 not below 7.00. As to `COc1ccc(S(=N)(=O)/C=C/CNC(=O)c2cc3c([nH]c2=O)CCC(F)C3)cc1F` (centres unmarked) [Example 172, 6-fluoro-N-[(2E)-3-[(3-fluoro-4-methoxyphenyl)(imino)oxo-λ^6-sulfanyl]prop-2-en-1-yl]-2-oxo-1,2,5,6,7,8-hexahydroquinoline-3-carboxamide], the pIC50 is not below 6.00. `COc1ccc(S(=O)(=O)/C=C/CNC(=O)c2cc3c([nH]c2=O)CCCCC3)cc1F` [Example 37, N-[(2E)-3-(3-fluoro-4-methoxybenzenesulfonyl)prop-2-en-1-yl]-2-oxo-1H,2H,5H,6H,7H,8H,9H-cyclohepta[b]pyridine-3-carboxamide] showed a pIC50 not below 5.00. `O=C(NC/C=C/S(=O)(=O)c1ccccc1)c1cc2c([nH]c1=O)CCN(C(=O)C1CC(F)(F)C1)C2` [Example 102, N-[(2E)-3-(benzenesulfonyl)prop-2-en-1-yl]-6-(3,3-difluorocyclobutanecarbonyl)-2-oxo-1,2,5,6,7,8-hexahydro-1,6-naphthyridine-3-carboxamide] had a pIC50 not below 5.00. Same read-out and setting: to `O=C(NC/C=C/S(=O)(=O)c1ccccc1)c1cc2c([nH]c1=O)CCN(C(=O)C1CCC(F)(F)CC1)C2` [Example 108, N-[(2E)-3-(benzenesulfonyl)prop-2-en-1-yl]-6-(4,4-difluorocyclohexanecarbonyl)-2-oxo-1,2,5,6,7,8-hexahydro-1,6-naphthyridine-3-carboxamide] belongs not below 5.00; to `CS(=O)(=O)/C=C/CNC(=O)c1cc2c([nH]c1=O)CCCC2` [Example 15, N-[(2E)-3-methanesulfonylprop-2-en-1-yl]-2-oxo-1,2,5,6,7,8-hexahydroquinoline-3-carboxamide], not below 5.00. The compound `N=S(=O)(/C=C/CNC(=O)c1cc2c([nH]c1=O)CCCC2)Cc1ccccc1` (centres unmarked) [Example 157, N-[(2E)-3-[benzyl(imino)oxo-λ^6-sulfanyl]prop-2-en-1-yl]-2-oxo-1,2,5,6,7,8-hexahydroquinoline-3-carboxamide] gave a pIC50 not below 5.00. `COCCC(=O)N1CCc2[nH]c(=O)c(C(=O)NC/C=C/S(=O)(=O)c3ccccc3)cc2C1` [Example 105, N-[(2E)-3-(benzenesulfonyl)prop-2-en-1-yl]-6-(3-methoxypropanoyl)-2-oxo-1,2,5,6,7,8-hexahydro-1,6-naphthyridine-3-carboxamide] had a pIC50 not below 6.00.

Consider `O=C(NC/C=C/S(=O)(=O)C1CCCC1)c1cc2c([nH]c1=O)CCCC2` [Example 17, N-[(2E)-3-(cyclopentanesulfonyl)prop-2-en-1-yl]-2-oxo-1,2,5,6,7,8-hexahydroquinoline-3-carboxamide], for which the pIC50 was not below 5.00. The same measure, in the same setting: next, `CC(C)S(=O)(=O)/C=C\CNC(=O)c1cc2c([nH]c1=O)CCCC2` [Example 20, 2-oxo-N-[(2Z)-3-(propane-2-sulfonyl)prop-2-en-1-yl]-1,2,5,6,7,8-hexahydroquinoline-3-carboxamide]: not below 4.00; `CC(C)S(=O)(=O)/C=C/CNC(=O)c1cc2c([nH]c1=O)CCCC2` [Example 18, 2-oxo-N-[(2E)-3-(propane-2-sulfonyl)prop-2-en-1-yl]-1,2,5,6,7,8-hexahydroquinoline-3-carboxamide]: not below 5.00; `O=C(NC/C=C/S(=O)(=O)c1ccc(Cl)cc1)c1cc(-c2ccccc2)c[nH]c1=O` [Example 130, N-[(2E)-3-(4-chlorobenzenesulfonyl)prop-2-en-1-yl]-2-oxo-5-phenyl-1,2-dihydropyridine-3-carboxamide]: not below 5.00. The same measure, in the same setting: next, `N#CC1(C(=O)N2CCc3[nH]c(=O)c(C(=O)NC/C=C/S(=O)(=O)c4ccccc4)cc3C2)CCC1` [Example 111, N-[(2E)-3-(benzenesulfonyl)prop-2-en-1-yl]-6-(1-cyanocyclobutanecarbonyl)-2-oxo-1,2,5,6,7,8-hexahydro-1,6-naphthyridine-3-carboxamide]: not below 5.00; `COC(C)(C)CC(=O)N1CCc2[nH]c(=O)c(C(=O)NC/C=C/S(=O)(=O)c3ccccc3)cc2C1` [Example 124, N-[(2E)-3-(benzenesulfonyl)prop-2-en-1-yl]-6-(3-methoxy-3-methylbutanoyl)-2-oxo-1,2,5,6,7,8-hexahydro-1,6-naphthyridine-3-carboxamide]: not below 5.00. Take `CC(=O)N1CCc2[nH]c(=O)c(C(=O)NC/C=C/S(=O)(=O)c3ccccc3)cc2C1` [Example 13, 6-acetyl-N-[(2E)-3-(benzenesulfonyl)prop-2-en-1-yl]-2-oxo-1,2,5,6,7,8-hexahydro-1,6-naphthyridine-3-carboxamide]: the pIC50 is not below 5.00. Still for that read-out and setting: to `CC(C)(C)S(=O)(=O)/C=C/CNC(=O)c1cc2c([nH]c1=O)CCCC2` [Example 23, N-[(2E)-3-(2-methylpropane-2-sulfonyl)prop-2-en-1-yl]-2-oxo-1,2,5,6,7,8-hexahydroquinoline-3-carboxamide] belongs not below 4.00; to `N=S(=O)(/C=C/CNC(=O)c1cc2c([nH]c1=O)CCCC2)c1ccc(N2CCCCC2=O)cc1` (centres unmarked) [Example 176, N-[(2E)-3-[imino(oxo)[4-(2-oxopiperidin-1-yl)phenyl]-λ^6-sulfanyl]prop-2-en-1-yl]-2-oxo-1,2,5,6,7,8-hexahydroquinoline-3-carboxamide], not below 6.00.

Turning to `CC(/C=C/S(=O)(=O)c1ccccc1)NC(=O)c1cc2c([nH]c1=O)CCCC2` (centres unmarked) [Example 14, N-[(3E)-4-(benzenesulfonyl)but-3-en-2-yl]-2-oxo-1,2,5,6,7,8-hexahydroquinoline-3-carboxamide], the pIC50 was not below 4.00.
